Results: patent US12084445B2, “Broad-spectrum carbapenems” (VenatoRx Pharmaceuticals, Inc., priority 2018, dated 2024)
Like-named read-outs stand apart in the source and are kept apart here.

How the values were obtained:
Assay type in all cases: cell-based
S. aureus USA 300 = assay: broth microdilution MIC assay, S. aureus USA 300; settings: Staphylococcus aureus; Table 4; S. aureus USA300; read-out: S. aureus USA300 MIC
Procedure, shortened: (§1)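 CLSI broth microdilution in cation-supplemented Mueller-Hinton broth, starting inoculum 5×10^5 CFU/mL, 2-fold compound dilutions. Incubation 16-20 h at 37 °C; MIC read visually as the lowest concentration with no growth.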

[1] = test system: E. coli ATCC 25922 (wild-type/QC strain); assay: broth microdilution MIC assay, E. coli ATCC 25922; settings: Escherichia coli, ATCC25922, E. coli 25922, read-out: E. coli 25922 MIC
Procedure, shortened: as §1

S. aureus USA600 = assay: broth microdilution MIC assay, S. aureus USA 600; settings: Staphylococcus aureus; Table 4; S. aureus USA600; read-out: S. aureus USA600 MIC
Procedure, shortened: as §1

[2] = test system: P. aeruginosa PA 3 (a clinical isolate of reduced carbapenem susceptibility); assay: broth microdilution MIC assay, P. aeruginosa PA 3; settings: Pseudomonas aeruginosa; Table 5; P. aeruginosa PA3
Method: (§2) To determine the ability of test compounds to potentiate the inhibition of the growth of bacterial strains, classic cell-based broth microdilution MIC assays were employed. MIC assays are performed according to CLSI methods except where otherwise noted (CLSI, 2011 and CLSI, 2009). The reference strains S. aureus ATCC 29213 (methicillin sensitive), S. aureus ATCC 33591 (methicillin-resistant), E. coli ATCC 25922 (wild-type/QC strain), P. aeruginosa ATCC 27853 (wild-type/QC strain), and the clinical isolate P. aeruginosa PA 8 were used to determine the ability of the exemplary carbapenem compounds to inhibit bacterial growth. An expanded panel of methicillin resistance S. aureus (MRSA) and Pseudomonas was also used to determine the ability of exemplary carbapenem compounds to inhibit bacterial growth across a broader representation of those species. To determine activity in MRSA and in addition to S. aureus ATCC 33591, S. aureus USA 300, USA 400 and USA 600, some of the most common clones found to cause human infection, were also used. To further gauge the impact on the carbapenem compounds due to various resistance mechanisms in Pseudomonas, the following strains were included: P. aeruginosa 35151 (hyper-permeable strain), P. aeruginosa AmexAB-OprM (an efflux pump knockout), and P. aeruginosa PA 3 (a clinical isolate of reduced carbapenem susceptibility). Briefly, cryo-preserved bacterial cultures of clinical strains are streaked for isolation on appropriate agar medium, in this case Mueller Hinton II agar. Following incubation to allow formation of colonies, these plates are sealed with parafilm and stored refrigerated for up to two weeks. For preparation of assay inocula and to ensure low variability, at least 5 colonies are picked from the agar plates with an inoculating loop and aseptically transferred to a culture tube containing 3 mL of Mueller-Hinton Broth (supplemented with divalent cations to required levels based on Manufacturers' specification). The broth culture is grown for 3-5 hours at 37° C. with shaking at 200 rpm. Meanwhile, 2-fold serial dilutions of test compounds are conducted in a 96 well plate with a final volume of 75 μL per well at 2-fold the final desired concentration. After the dilution plates are set up the growing cultures are then diluted in a cuvette containing MH II broth and the optical density is measured at 600 nm. Inocula are diluted such that 75 μL of this culture in Mueller-Hinton Broth results in a starting bacterial concentration of 5×10^5 CFU/mL when added to the dilution plates. The plates are incubated 16-20 hours at 37° C. The MIC is read visually as the lowest concentration well with no bacterial growth.
(§3) Representative results are shown in Tables 3, 4, and 5 where A represents an MIC>32 μg/mL, B represents an MIC between 8 and 32 μg/mL inclusive, C represents an MIC between 1 and 4 μg/mL inclusive, and D represents an MIC of <1 μg/mL. NT=Not Tested.

[3] = test system: S. aureus ATCC 29213 (methicillin sensitive); assay: broth microdilution MIC assay, S. aureus ATCC 29213; settings: Staphylococcus aureus, ATCC 29213 / MSSA; Table 3; S. aureus 29213 (MSSA); read-out: S. aureus 29213 (MSSA) MIC
Method: as §2, §3

[4] = test system: S. aureus ATCC 33591 (methicillin-resistant); assay: broth microdilution MIC assay, S. aureus ATCC 33591; settings: Staphylococcus aureus
Procedure, shortened: as §1

[5] = test system: P. aeruginosa 35151 (hyper-permeable strain); assay: broth microdilution MIC assay, P. aeruginosa 35151; settings: Pseudomonas aeruginosa, read-out: P. aeruginosa 35151 MIC
Procedure, shortened: as §1

[6] = test system: P. aeruginosa ΔmexAB-OprM (an efflux pump knockout); assay: broth microdilution MIC assay, P. aeruginosa ΔmexAB-OprM; settings: Pseudomonas aeruginosa, 20 h, read-out: P. aeruginosa ΔmexAB-OprM MIC
Procedure, shortened: as §1

[7] = test system: clinical isolate P. aeruginosa PA 8; assay: broth microdilution MIC assay, P. aeruginosa PA 8; settings: Pseudomonas aeruginosa, P. aeruginosa PA8
Procedure, shortened: as §1

[8] = test system: P. aeruginosa ATCC 27853 (wild-type/QC strain); assay: broth microdilution MIC assay, P. aeruginosa ATCC 27853; settings: Pseudomonas aeruginosa, ATCC27853, P. aeruginosa 27853, read-out: P. aeruginosa 27853 MIC
Procedure, shortened: as §1

S. aureus USA400 = assay: broth microdilution MIC assay, S. aureus USA 400; settings: Staphylococcus aureus, Table 4
Method: as §2, §3

[9] = ATCC 33591 / MRSA, Table 3, S. aureus 33591 (MRSA), read-out: S. aureus 33591 (MRSA) MIC
[10] = ATCC33591, Table 4, S. aureus 33591, read-out: S. aureus 33591 MIC

Row | MIC ([1]; Table 3) [µg/mL] | MIC [4, 9] [µg/mL] | MIC ([7]; Table 3) [µg/mL] | MIC ([8]; Table 3) [µg/mL] | Compound | MIC (S. aureus USA 300) [µg/mL] | MIC ([1]; Table 4) [µg/mL] | MIC (S. aureus USA600) [µg/mL] | MIC [2] [µg/mL] | MIC [3] [µg/mL] | MIC [4, 10] [µg/mL] | MIC [5] [µg/mL] | MIC [6] [µg/mL] | MIC ([7]; Table 5) [µg/mL] | MIC ([8]; Table 5) [µg/mL] | MIC (S. aureus USA400) [µg/mL]
1 | < 1 | > 32 | 8 to 32 | 8 to 32 | C[C@@H](O)[C@H]1C(=O)N2C(C(=O)O)=C(S[C@@H]3CCN(CCCN)C3)[C@H](C)[C@H]12 [Example 36, (4R,5S,6S)-3-(((R)-1-(3-aminopropyl)pyrrolidin-3-yl)thio)-6-((R)-1-hydroxyethyl)-4-methyl-7-oxo-1-azabicyclo[3.2.0]hept-2-ene-2-carboxylic acid] | 8 to 32 | < 1 | – | > 32 | – | > 32 | – | – | 8 to 32 | 8 to 32 | 8 to 32
2 | < 1 | 8 to 32 | 8 to 32 | 1 to 4 | CNCCCCN1CC[C@@H](SC2=C(C(=O)O)N3C(=O)[C@H]([C@@H](C)O)[C@H]3[C@H]2C)C1 [Example 37, (4R,5S,6S)-6-((R)-1-hydroxyethyl)-4-methyl-3-(((R)-1-(4-(methylamino)butyl)pyrrolidin-3-yl)thio)-7-oxo-1-azabicyclo[3.2.0]hept-2-ene-2-carboxylic acid] | 8 to 32 | < 1 | – | 8 to 32 | – | 8 to 32 | – | – | 1 to 4 | 1 to 4 | 1 to 4
3 | < 1 | 8 to 32 | 8 to 32 | 8 to 32 | C[C@@H](O)[C@H]1C(=O)N2C(C(=O)O)=C(S[C@@H]3CCN(C4CCC(N)(CN)CC4)C3)[C@H](C)[C@H]12 (stereo partly drawn) [Example 38, (4R,5S,6S)-3-(((R)-1-(4-amino-4-(aminomethyl)cyclohexyl)pyrrolidin-3-yl)thio)-6-((R)-1-hydroxyethyl)-4-methyl-7-oxo-1-azabicyclo[3.2.0]hept-2-ene-2-carboxylic acid] | 8 to 32 | < 1 | – | 8 to 32 | – | 8 to 32 | – | – | 8 to 32 | 8 to 32 | 1 to 4
4 | – | – | – | – | C[C@@H](O)[C@H]1C(=O)N2C(C(=O)O)=C(SC3CN(CC4CCNCC4)C3)[C@H](C)[C@H]12 [Example 42, (4R,5S,6S)-6-((R)-1-hydroxyethyl)-4-methyl-7-oxo-3-((1-(piperidin-4-ylmethyl)azetidin-3-yl)thio)-1-azabicyclo[3.2.0]hept-2-ene-2-carboxylic acid] | 1 to 4 | < 1 | 1 to 4 | 8 to 32 | – | 1 to 4 | < 1 | 1 to 4 | 1 to 4 | 1 to 4 | 1 to 4
5 | – | – | – | – | C[C@@H](O)[C@H]1C(=O)N2C(C(=O)O)=C(SC3CCN(CC4CCNCC4)CC3)[C@H](C)[C@H]12 [Example 44, (4R,5S,6S)-6-((R)-1-hydroxyethyl)-4-methyl-7-oxo-3-((1-(piperidin-4-ylmethyl)piperidin-4-yl)thio)-1-azabicyclo[3.2.0]hept-2-ene-2-carboxylic acid] | 1 to 4 | 1 to 4 | – | 8 to 32 | – | 8 to 32 | < 1 | 1 to 4 | 8 to 32 | 8 to 32 | 1 to 4
6 | – | – | – | – | C[C@@H](O)[C@H]1C(=O)N2C(C(=O)O)=C(S[C@@H]3CCN(C[C@@H]4CNCCO4)C3)[C@H](C)[C@H]12 [Example 49, (4R,5S,6S)-6-((R)-1-hydroxyethyl)-4-methyl-3-(((R)-1-(((S)-morpholin-2-yl)methyl)pyrrolidin-3-yl)thio)-7-oxo-1-azabicyclo[3.2.0]hept-2-ene-2-carboxylic acid] | 1 to 4 | < 1 | 1 to 4 | 8 to 32 | – | 8 to 32 | < 1 | 1 to 4 | 1 to 4 | 8 to 32 | –
7 | – | – | – | – | C[C@@H](O)[C@H]1C(=O)N2C(C(=O)O)=C(S[C@@H]3CCN(C[C@H]4CNCCO4)C3)[C@H](C)[C@H]12 [Example 50, (4R,5S,6S)-6-((R)-1-hydroxyethyl)-4-methyl-3-(((R)-1-(((R)-morpholin-2-yl)methyl)pyrrolidin-3-yl)thio)-7-oxo-1-azabicyclo[3.2.0]hept-2-ene-2-carboxylic acid] | 1 to 4 | < 1 | 1 to 4 | 8 to 32 | – | 1 to 4 | < 1 | 1 to 4 | 1 to 4 | 1 to 4 | –
8 | – | – | – | – | C[C@@H](O)[C@H]1C(=O)N2C(C(=O)O)=C(S[C@@H]3CCN(C[C@H]4CCNC4)C3)[C@H](C)[C@H]12 [Example 51, (4R,5S,6S)-6-((R)-1-hydroxyethyl)-4-methyl-7-oxo-3-(((R)-1-(((S)-pyrrolidin-3-yl)methyl)pyrrolidin-3-yl)thio)-1-azabicyclo[3.2.0]hept-2-ene-2-carboxylic acid] | 1 to 4 | < 1 | 1 to 4 | 8 to 32 | – | 1 to 4 | < 1 | 1 to 4 | 1 to 4 | 1 to 4 | –
9 | – | – | – | – | C[C@@H](O)[C@H]1C(=O)N2C(C(=O)O)=C(S[C@@H]3CCN(C[C@@H]4CCNC4)C3)[C@H](C)[C@H]12 [Example 53, (4R,5S,6S)-6-((R)-1-hydroxyethyl)-4-methyl-7-oxo-3-(((R)-1-(((R)-pyrrolidin-3-yl)methyl)pyrrolidin-3-yl)thio)-1-azabicyclo[3.2.0]hept-2-ene-2-carboxylic acid] | 1 to 4 | < 1 | 1 to 4 | 8 to 32 | – | 1 to 4 | < 1 | 1 to 4 | 1 to 4 | 1 to 4 | –

Row | Compound | MIC ([1]; Table 3) [µg/mL] | MIC [4, 9] [µg/mL] | MIC ([7]; Table 3) [µg/mL] | MIC ([8]; Table 3) [µg/mL] | MIC (S. aureus USA 300) [µg/mL] | MIC ([1]; Table 4) [µg/mL] | MIC (S. aureus USA600) [µg/mL] | MIC [2] [µg/mL] | MIC [3] [µg/mL] | MIC [4, 10] [µg/mL] | MIC [5] [µg/mL] | MIC [6] [µg/mL] | MIC ([7]; Table 5) [µg/mL] | MIC ([8]; Table 5) [µg/mL] | MIC (S. aureus USA400) [µg/mL]
10 | C[C@@H](O)[C@H]1C(=O)N2C(C(=O)O)=C(S[C@@H]3CCN(CC4CCN(C(=N)N)CC4)C3)[C@H](C)[C@H]12 [Example 35, (4R,5S,6S)-3-(((R)-1-((1-carbamimidoylpiperidin-4-yl)methyl)pyrrolidin-3-yl)thio)-6-((R)-1-hydroxyethyl)-4-methyl-7-oxo-1-azabicyclo[3.2.0]hept-2-ene-2-carboxylic acid] | < 1 | 1 to 4 | 1 to 4 | 1 to 4 | < 1 | < 1 | < 1 | 8 to 32 | 1 to 4 | 1 to 4 | < 1 | < 1 | 1 to 4 | 1 to 4 | 1 to 4
